Measured values reported in US7560474B2, “Derivatives of pyridilethanol (phenylethyl) amines as inhibitors of cholesterol biosynthesis, process for their preparation and pharmaceutical compositions containing them” (Lek Pharmaceuticals d.d., priority 2002, dated 2009).
Entries after “also recorded” stand apart in the source; their conditions may differ. Structures can show the parent of a compound that is named as a salt.

Legend:
[1] = tested on: cholesterol biosynthesis in immortal human hepatocyte cell line HepG2; experiment: Metabolic labeling of immortal human hepatocytes (HepG2) with [3H] acetate, HPLC sterol analysis; assay type: cell-based; details: 100 μM inhibitor, HepG2 cells, [3H] acetate labeling, radiodetector HPLC; for quantity of radiolabelled cholesterol synthesized (inhibition of cholesterol biosynthesis): FIG. 3
Description: In accordance with the invention goal, the effect of the novel derivatives of pyridylethanol (phenylethyl) amine as ligands of sigma receptors on inhibition of cholesterol biosynthesis was assessed. An ex vivo method of metabolic labeling of immortal human hepatocytes was employed. The radioactively labelled early precursor of cholesterol [^3H] acetate was added to cells with or without addition of sigma ligands. Two independent experiments of metabolic labeling and sterol analysis were performed. […] The inhibitory effect on cholesterol biosynthesis of our novel ligands of sigma receptors BK-31.2 HBr, BK-33.2HBr, BK-35.2HBr and BK-38.2HBr), prepared according to examples 1 to 4, was evaluated. An ex vivo method of metabolic labeling of immortal human hepatocytes was applied. The radiolabel led precursor of cholesterol biosynthesis [^3H] acetate was added to the cells with or without the addition of sigma ligands. Finally, two independent experiments of metabolic labeling and sterol analysis were performed for each compound. The immortal human hepatocyte cell line HepG2 was split to the 75 cm^2 flasks in the ratio 1:2, two flasks for each condition. The cells were cultured in the DMEM culture ([…] 0.0626 […] 0.042 […]-thryptophan 0.016 g/l, L-[…]Na.2H2O 0.10379 […], choline chloride 0.004 g/l, folic acid 0.004 g/l, myo-inositol 0.0072 g/l, niacinamide 0.004 g/l, D-pantothenic acid 0.004 g/l, pyridoxal.HCl 0.004 g/l, riboflavin 0.0004 g/l, thiamine.HCl 0.004 g/l, calcium chloride.2H2O 0.265 g/l, ferric nitrate.9H2O 0.0001 g/l, magnesium sulfate [anhydride] 0.09767 g/l, potassium chloride 0.4 g/l, sodium chloride 6.4 g/l, monobasic sodium phosphate [anhydride] 0.109 g/l, glucose 4.5 g/l and phenol red, Na 0.0159 g/l) with 5% bovine serum and 1% L-glutamine. After 24 hours a medium with 100 μM ligands of sigma receptors (BK-31.2HBr, BK-33.2HBr, BK-35.2HBr and BK-38.2HBr) was added to the cells. The known inhibitors of cholesterol biosynthesis, 100 μM lovastatin or pravastatin, both the inhibitors of HMG-CoA reductase, and 100 μM fluconazole that inhibits enzymes of the P450 family to which lanosterol 14α-[…] (CYP51) also belongs, were used as positive controls. The cells grown in normal media without the addition of inhibitors served as negative control. The medium was exchanged after 24 hours. After 48 hours, 40 μCi [^3H] acetate was added per 1 ml of the medium (400 μCi per flask). The medium was aspirated after 24 hours, and the cells were tryptinized with 2 ml of trypsine. The cells were collected in 4 ml of the medium, centrifuged, and the cell pellet resuspended in distilled water (1 ml per flask). The cells were homogenized by freeze-thawing. Sterols were extracted from the homogenate. Protein concentration was determined in the homogenate with the Bio-rad reagent according to the recommended protocol of the producer. The homogenate was transferred into glass vials with an inert cover. 3 ml of the extraction solution (75% n-heptane:25% isopropanol (vol/vol)) was added. The closed vials were shaken vigorously on a shaker in the dark room for 2 hours. […] Until analysis, the samples were stored in the HPLC-grade solvent in dark and cold. The dried extracts were dissolved in 250 μl n-heptane. 100 μl aliquots were injected into the normal phase column (ChromSpher Si, 150 mm×3 mm, particle size 5 μm) with the mobile phase 99.5% n-heptane:0.5% isopropanol at flow rate 1 ml/min and room temperature. […] For determination of sterol after metabolic labeling, a radiodetector with the flow-through cell was used. […] G. Byskov, Rikhospitalitet, University of Copenhagen). The results were normalized according to the quantity of internal standard ergosterol and the concentration of proteins in the homogenate. The results represent the average value of two measurements with appropriate standard deviation.

| SMILES | quantity of radiolabelled cholesterol synthesized (inhibition of cholesterol biosynthesis) [1] | also measured |
| --- | --- | --- |
| CN(CCc1ccc(Cl)c(Cl)c1)CC(O)c1ccncc1 (stereo not drawn) [BK-38.2HBr, 1-(4-pyridyl)-2-(N-(2-(3,4-dichlorophenyl)ethyl)-N-methylamino)ethanol dihydrobromide] | significantly lowered amounts of cholesterol |  |
| CN(CCc1ccc(Cl)c(Cl)c1)CC(O)c1cccnc1 (stereo not drawn) [BK-33.2HBr, 1-(3-pyridyl)-2-(N-(2-(3,4-dichlorophenyl)ethyl)-N-methylamino)ethanol dihydrobromide] | significantly lowered amounts of cholesterol |  |
| CCCN(CCc1ccccc1)CC(O)c1cccnc1 (stereo not drawn) (as salt: hydrobromid) [BK-31.2HBr, 1-(3-pyridyl)-2-(N-(2-phenylethyl)-N-propylamino)ethanol dihydrobromide] |  | melting point: 113 to 120 °C |
| CCCN(CCc1ccccc1)CC(O)c1cccnc1 (stereo not drawn) [BK-31.2HBr, 1-(3-pyridyl)-2-(N-(2-phenylethyl)-N-propylamino)ethanol dihydrobromide] | significantly lowered amounts of cholesterol |  |
| CCCN(CCc1ccc(Cl)c(Cl)c1)CC(O)c1cccnc1 (stereo not drawn) [BK-35.2HBr, 1-(3-pyridyl)-2-(N-(2-(3,4-dichlorophenyl)ethyl)-N-propylamino)ethanol dihydrobromide] |  | quantity of radiolabelled cholesterol synthesized (inhibition of cholesterol biosynthesis) ([1]; dihydrobromide): most pronounced; also recorded: cholesterol quantity is diminished; also recorded: significantly lowered amounts of cholesterol; also recorded: greatest lowering of cholesterol; quantity of radiolabelled cholesterol synthesized (inhibition of cholesterol biosynthesis) ([1]; listed as BK 35.2HBr, dihydrobromide): highest potential to inhibit cholesterol biosynthesis; amount of intermediate sterols representing lanosterol or T-MAS (accumulation of early postsqualene intermediates) ([1]; FIG. 4, dihydrobromide): ten-fold increase; also recorded: increased |
| CC[C@H](C)C(=O)O[C@H]1C[C@@H](C)C=C2C=C[C@H](C)[C@H](CC[C@@H]3C[C@@H](O)CC(=O)O3)[C@H]21 [Lovastatin, lovastatin, reference compound] | completely blocked the biosynthesis |  |
| OC(Cn1cncn1)(Cn1cncn1)c1ccc(F)cc1F [Fluconazole, fluconazole, reference compound] | weaker inhibitor of cholesterol biosynthesis |  |
